Literature values in patent US12201712B2, “Method for dyeing keratinous material, comprising the use of an organosilicon compound, a phosphoric acid ester and a dyeing compound” (Henkel AG & Co. KGaA, priority 2020, dated 2025).

Compound	solubility in water (25° C.)	also measured
O=C(O)C1=NN(c2ccc(S(=O)(=O)O)cc2)C(=O)C1N=Nc1ccc(S(=O)(=O)O)cc1 (stereo not shown) [Acid Yellow 23, 4,5-dihydro-5-oxo-1-(4-sulfophenyl)-4-((4-sulfophenyl)azo)-1H-pyrazole-3-carboxylic acid]		solubility in water (in words) (at 25° C.): readily soluble in water
O=S(=O)(O)c1ccc(N=Nc2c(O)ccc3ccccc23)cc1 [Acid Orange 7, 4-[(2-hydroxy-1-naphthyl)azo]benzene sulphonate]	more than 7 g/L	
O=[N+]([O-])c1cc([N+](=O)[O-])c2ccc(S(=O)(=O)O)cc2c1O [Acid Yellow 9, 8-hydroxy-5,7-dinitro-2-naphthalenesulfonic acid]	above 40 g/L	
CCN(Cc1cccc(S(=O)(=O)O)c1)c1ccc(C(=C2C=CC(=[N+](CC)Cc3cccc(S(=O)(=O)O)c3)C=C2)c2ccccc2S(=O)(=O)[O-])cc1 [Acid Blue 9]		water solubility (25° C.): greater than 20 wt. %
